Measurements published in patent publication US9409917B2, “Heterocyclic amide derivatives as P2X7 receptor antagonists” (ACTELION PHARMACEUTICALS LTD., priority 2012, dated 2016).
pIC50: −log10 of the molar value. Where two headings read alike, the source gives them in different places.

Target: human recombinant P2X7 receptor (Homo sapiens (Human), UniProt Q99572)
Assay: YO-PRO assay: P2X7 receptor antagonistic activity (ATP-induced YO-PRO-1 uptake, FLIPR)
Conditions: for IC50: read-out: IC50 [nM], antagonistic activities with respect to the P2X7 receptor, HEK-293 cells expressing human recombinant P2X7 receptor, YO-PRO-1 fluorescence, ATP 250 μM, 90 minutes, highest concentration 10 μM

Chain of human recombinant P2X7 receptor (Q99572 whole entry): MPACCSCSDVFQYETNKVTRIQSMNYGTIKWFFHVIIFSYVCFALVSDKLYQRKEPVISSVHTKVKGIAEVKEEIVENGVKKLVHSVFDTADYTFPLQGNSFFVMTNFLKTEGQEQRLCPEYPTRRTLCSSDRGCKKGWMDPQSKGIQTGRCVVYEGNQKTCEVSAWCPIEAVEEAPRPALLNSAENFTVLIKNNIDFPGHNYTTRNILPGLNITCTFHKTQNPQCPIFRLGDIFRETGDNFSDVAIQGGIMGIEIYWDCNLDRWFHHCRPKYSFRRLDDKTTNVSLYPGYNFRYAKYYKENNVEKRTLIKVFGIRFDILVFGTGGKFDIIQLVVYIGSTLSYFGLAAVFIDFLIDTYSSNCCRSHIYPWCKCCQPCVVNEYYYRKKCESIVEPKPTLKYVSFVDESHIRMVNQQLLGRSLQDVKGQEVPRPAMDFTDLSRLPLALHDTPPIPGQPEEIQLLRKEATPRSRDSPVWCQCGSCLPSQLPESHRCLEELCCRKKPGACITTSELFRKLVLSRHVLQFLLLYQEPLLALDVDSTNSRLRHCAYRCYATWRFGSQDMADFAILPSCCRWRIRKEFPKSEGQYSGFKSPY

O=C(NC(CO)C1CCCCCC1)C1COc2ncccc21 (single isomer, unassigned) [Example 13, rac-2,3-Dihydro-furo[2,3-b]pyridine-3-carboxylic acid (1-cycloheptyl-2-hydroxy-ethyl)-amide]
pIC50: 6.09

O=C(NC(CO)C1CCCCCC1)C1COc2ncccc21 (single isomer, unassigned) [Example 14, rac-2,3-Dihydro-furo[2,3-b]pyridine-3-carboxylic acid (1-cycloheptyl-2-hydroxy-ethyl)-amide]
pIC50: 6.93

Cc1cc(Cl)cc(Cl)c1CNC(=O)C1CCOc2ncccc21 (single isomer, unassigned) [Example 17, 3,4-Dihydro-2H-pyrano[2,3-b]pyridine-4-carboxylic acid 2,4-dichloro-6-methyl-benzylamide]
IC50: 1.3 nM

Cc1cc(Cl)cc(Cl)c1CNC(=O)C1CCOc2ncccc21 (single isomer, unassigned) [Example 18, 3,4-Dihydro-2H-pyrano[2,3-b]pyridine-4-carboxylic acid 2,4-dichloro-6-methyl-benzylamide]
IC50: 1.6 nM

O=C(NCc1c(Cl)cc(Cl)cc1CO)C1COc2ncccc21 (single isomer, unassigned) [Example 24, 2,3-Dihydro-furo[2,3-b]pyridine-3-carboxylic acid 2,4-dichloro-6-hydroxymethyl-benzylamide]
IC50: 39.4 nM

O=C(NCc1c(Cl)cc(Cl)cc1CO)C1COc2ncccc21 (single isomer, unassigned) [Example 25, 2,3-Dihydro-furo[2,3-b]pyridine-3-carboxylic acid 2,4-dichloro-6-hydroxymethyl-benzylamide]
IC50: 2.7 nM

Cc1ncc(C(CNC(=O)C2COc3ncccc32)N2CCC(F)(F)CC2)cn1 (single isomer, unassigned) [Example 27, rac-2,3-Dihydro-furo[2,3-b]pyridine-3-carboxylic acid [2-(4,4-difluoro-piperidin-1-yl)-2-(2-methyl-pyrimidin-5-yl)-ethyl]-amide]
pIC50: 5.87

Cc1ncc(C(CNC(=O)C2COc3ncccc32)N2CCC(F)(F)CC2)cn1 (single isomer, unassigned) [Example 28, rac-2,3-Dihydro-furo[2,3-b]pyridine-3-carboxylic acid [2-(4,4-difluoro-piperidin-1-yl)-2-(2-methyl-pyrimidin-5-yl)-ethyl]-amide]
pIC50: 7.23

O=C(NCC(c1cnc(C(F)(F)F)nc1)N1CCOCC1)C1COc2ncccc21 (single isomer, unassigned) [Example 59, rac-2,3-Dihydro-furo[2,3-b]pyridine-3-carboxylic acid [2-morpholin-4-yl-2-(2-trifluoromethyl-pyrimidin-5-yl)-ethyl]-amide]
pIC50: 6.46

O=C(NCC(c1cnc(C(F)(F)F)nc1)N1CCOCC1)C1COc2ncccc21 (single isomer, unassigned) [Example 60, rac-2,3-Dihydro-furo[2,3-b]pyridine-3-carboxylic acid [2-morpholin-4-yl-2-(2-trifluoromethyl-pyrimidin-5-yl)-ethyl]-amide]
pIC50: 7.54

O=C(NCc1c(Cl)cc(Cl)cc1Br)C1COc2ncccc21 (single isomer, unassigned) [Example 79, 2,3-Dihydro-furo[2,3-b]pyridine-3-carboxylic acid 2-bromo-4,6-dichloro-benzylamide]
IC50: 51.1 nM

O=C(NCc1c(Cl)cc(Cl)cc1Br)C1COc2ncccc21 (single isomer, unassigned) [Example 80, 2,3-Dihydro-furo[2,3-b]pyridine-3-carboxylic acid 2-bromo-4,6-dichloro-benzylamide]
IC50: 4.1 nM

O=C(NCC(c1cnc(C(F)(F)F)nc1)N1CCOCC1)C1COc2ncccc21 (single isomer, unassigned) [Example 81, 2,3-Dihydro-furo[2,3-b]pyridine-3-carboxylic acid [2-morpholin-4-yl-2-(2-trifluoromethyl-pyrimidin-5-yl)-ethyl]-amide]
IC50: 7520 nM

O=C(NCC(c1cnc(C(F)(F)F)nc1)N1CCOCC1)C1COc2ncccc21 (single isomer, unassigned) [Example 82, 2,3-Dihydro-furo[2,3-b]pyridine-3-carboxylic acid [2-morpholin-4-yl-2-(2-trifluoromethyl-pyrimidin-5-yl)-ethyl]-amide]
IC50: 2230 nM

[2H]C([2H])([2H])c1cc(Cl)cc(Cl)c1CNC(=O)C1COc2ncccc21 (single isomer, unassigned) [Example 97, 2,3-Dihydro-furo[2,3-b]pyridine-3-carboxylic acid 2,4-dichloro-6-trideuteromethyl-benzylamide]
pIC50: 7.70

[2H]C([2H])([2H])c1cc(Cl)cc(Cl)c1CNC(=O)C1COc2ncccc21 (single isomer, unassigned) [Example 98, 2,3-Dihydro-furo[2,3-b]pyridine-3-carboxylic acid 2,4-dichloro-6-trideuteromethyl-benzylamide]
pIC50: 8.74

O=C(NC1CCc2cc(Cl)ccc21)C1COc2ncccc21 (single isomer, unassigned) [Example 99, rac-2,3-Dihydro-furo[2,3-b]pyridine-3-carboxylic acid (5-chloro-indan-1-yl)-amide]
pIC50: 6.52

O=C(NC1CCc2cc(Cl)ccc21)C1COc2ncccc21 (single isomer, unassigned) [Example 100, rac-2,3-Dihydro-furo[2,3-b]pyridine-3-carboxylic acid (5-chloro-indan-1-yl)-amide]
pIC50: 7.22

O=C(NC(CO)C1CCCCCC1)C1CCOc2ncccc21 (centres unmarked) [Example 52, 3,4-Dihydro-2H-pyrano[2,3-b]pyridine-4-carboxylic acid (1-cycloheptyl-2-hydroxy-ethyl)-amide]
IC50: 276 nM

O=C(NCC(c1cnc(C(F)(F)F)nc1)N1CCC(F)(F)CC1)C1COc2ncccc21 (centres unmarked) [Example 62, 2,3-Dihydro-furo[2,3-b]pyridine-3-carboxylic acid [2-(4,4-difluoro-piperidin-1-yl)-2-(2-trifluoromethyl-pyrimidin-5-yl)-ethyl]-amide]
IC50: 46.9 nM

O=C(NC1CC1c1ccccc1)C1COc2ncccc21 (centres unmarked) [Example 64, 2,3-Dihydro-furo[2,3-b]pyridine-3-carboxylic acid (2-phenyl-cyclopropyl)-amide]
IC50: 4850 nM

NC(=O)C1CCCCC1NC(=O)C1COc2ncccc21 (centres unmarked) [Example 66, 2,3-Dihydro-furo[2,3-b]pyridine-3-carboxylic acid (2-carbamoyl-cyclohexyl)-amide]
IC50: 5880 nM

C[C@@H](NC(=O)C1COc2ncccc21)c1ccc(Cl)cc1Cl (stereo partly drawn) [Example 70, 2,3-Dihydro-furo[2,3-b]pyridine-3-carboxylic acid [(R)-1-(2,4-dichloro-phenyl)-ethyl]-amide]
IC50: 110 nM

C[C@@H](NC(=O)C1COc2ncccc21)c1ccc(Cl)cc1Cl (stereo partly drawn) [Example 71, 2,3-Dihydro-furo[2,3-b]pyridine-3-carboxylic acid [(R)-1-(2,4-dichloro-phenyl)-ethyl]-amide]
IC50: 36.5 nM

O=C(NCC(c1ccc(C(F)(F)F)cc1)N1CCC(F)(F)CC1)C1COc2ncccc21 (centres unmarked) [Example 78, 2,3-Dihydro-furo[2,3-b]pyridine-3-carboxylic acid [2-(4,4-difluoro-piperidin-1-yl)-2-(4-trifluoromethyl-phenyl)-ethyl]-amide]
IC50: 122 nM

O=C(NCC(c1cnc(C(F)(F)F)nc1)N1CCOCC1)C1COc2ncccc21 (centres unmarked) [Example 83, 2,3-Dihydro-furo[2,3-b]pyridine-3-carboxylic acid [2-morpholin-4-yl-2-(2-trifluoromethyl-pyrimidin-5-yl)-ethyl]-amide]
IC50: 124 nM

O=C(NCC(c1cnc(C(F)(F)F)nc1)N1CCOCC1)C1COc2ncccc21 (centres unmarked) [Example 84, 2,3-Dihydro-furo[2,3-b]pyridine-3-carboxylic acid [2-morpholin-4-yl-2-(2-trifluoromethyl-pyrimidin-5-yl)-ethyl]-amide]
IC50: 20.8 nM

COc1ccc(C(CNC(=O)C2COc3ncccc32)N2CCOCC2)cn1 (centres unmarked) [Example 87, 2,3-Dihydro-furo[2,3-b]pyridine-3-carboxylic acid [2-(6-methoxy-pyridin-3-yl)-2-morpholin-4-yl-ethyl]-amide]
IC50: 978 nM

Cc1ccc(C(CNC(=O)C2COc3ncccc32)N2CCOCC2)cn1 (centres unmarked) [Example 90, 2,3-Dihydro-furo[2,3-b]pyridine-3-carboxylic acid [2-(6-methyl-pyridin-3-yl)-2-morpholin-4-yl-ethyl]-amide]
IC50: 1150 nM

O=C(NCC(c1cnc(C2CC2)nc1)N1CCOCC1)C1COc2ncccc21 (centres unmarked) [Example 91, 2,3-Dihydro-furo[2,3-b]pyridine-3-carboxylic acid [2-(2-cyclopropyl-pyrimidin-5-yl)-2-morpholin-4-yl-ethyl]-amide]
IC50: 215 nM

O=C(NCC(c1ccc(C(F)(F)F)nc1)N1CCOCC1)C1COc2ncccc21 (centres unmarked) [Example 92, 2,3-Dihydro-furo[2,3-b]pyridine-3-carboxylic acid [2-morpholin-4-yl-2-(6-trifluoromethyl-pyridin-3-yl)-ethyl]-amide]
IC50: 82.2 nM

O=C(N[C@@H]1CCCc2ccccc21)C1COc2ncccc21 (stereo partly drawn) [Example 107, 2,3-dihydrofuro[2,3-b]pyridine-3-carboxylic acid ((R)-1,2,3,4-tetrahydronaphthalen-1-yl)-amide]
IC50: 1220 nM

O=C(N[C@@H]1CCCc2ccccc21)C1COc2ncccc21 (stereo partly drawn) [Example 108, 2,3-dihydrofuro[2,3-b]pyridine-3-carboxylic acid ((R)-1,2,3,4-tetrahydronaphthalen-1-yl)-amide]
IC50: 191 nM

O=C(N[C@@H]1CCCc2cccc(Cl)c21)C1COc2ncccc21 (stereo partly drawn) [Example 111, 2,3-Dihydro-furo[2,3-b]pyridine-3-carboxylic acid ((R)-8-chloro-1,2,3,4-tetrahydro-naphthalen-1-yl)-amide]
IC50: 221 nM

O=C(N[C@@H]1CCCc2cccc(Cl)c21)C1COc2ncccc21 (stereo partly drawn) [Example 112, 2,3-Dihydro-furo[2,3-b]pyridine-3-carboxylic acid ((R)-8-chloro-1,2,3,4-tetrahydro-naphthalen-1-yl)-amide]
IC50: 9.5 nM
